Test results as given in patent US11738022B2, “Methods for inducing pupil dilation” (THE REGENTS OF THE UNIVERSITY OF COLORADO, A BODY CORPORATE, priority 2017, dated 2023).
Counter-ions that a name gives are not always drawn.

What was measured:
[1] = system: pupil; experiment: Pupil dilation measured with Neuroptics pupillometer after α-2 agonist pre-treatment and/or phenylephrine; format: in vivo, human; details: for Pupil size, Treated eye / Surgical Work area, Treated eye / Pupil size, Non-treated eye / Surgical Work area, Non-treated eye: photopic conditions (1258.925 lux) after dilation with phenylephrine 10%; for Pupil size, Non-treated eye / Surgical Work area, Non-treated eye: eye without pre-treatment
Protocol: Dilation medication used was Phenylephrine hydrochloride 10% (Akorn, Inc). Pupillometer used was a Neuroptics DP-2000 Binocular Pupillometer).
Dilation using phenylephrine hydrochloride 10% was conducted in both eyes of the test subject to use as a control against the other compounds being tested.
After this, dilation using phenylephrine hydrochloride 2.5% or phenylephrine hydrochloride 10% was conducted to investigate the effects of the compound on pupil dilation.
Apracionidine 0.5% was administered in the right eye of the test subject three (3) times a day for 4 days. After this, dilation using phenylephrine hydrochloride 10% was conducted to investigate the effects of the compound on pupil dilation.
After this, dilation using phenylephrine hydrochloride 10% was conducted to investigate the effects of the compound on pupil dilation.
A washout period of multiple months was undertaken in between each experiment.
Pupil measurements were obtained using a Neuroptics pupillometer. Parameters were as follows: Scotopic conditions for 1 second, followed by photopic conditions for 4 seconds (1258.925 lux), followed by scotopic conditions for 10 seconds. This allowed for investigation of scotopic pupil size, photopic pupil size, and scotopic pupil size recovery after the light stimulus concluded.
The pupils of the subject's pretreated right eye and untreated control left eye were then measured under both scotopic and photopic conditions for baseline measurements (FIG. 6A). Photopic conditions consisted of a 4 second window where a light was shining in both eyes simultaneously. […]
The experiment was repeated at a higher dosage wherein the subject was administered a second ophthalmic formulation containing 10% phenylephrine to both eyes. 30 minutes after instillation of 10% phenylephrine, the pupils of the subject were then measured under both scotopic and photopic conditions (FIG. 6C). […] Because the area of a circle is dependent on the radius squared (area of a circle=πr^2), the increase in area that is created from a increasing the pupil dilation size is not linear.
The results were then compared.

[2] = system: α receptors (α2:α1); details: affinity ratio; cited from earlier work
[3] = after pre-treatment of right eye only, 3 times a day for 4 days, before phenylephrine
[4] = after pre-treatment of right eye only, 3 times a day for 4 days, before phenylephrine, left eye not treated
[5] = dilation pre and post treatment with α 2 agonist: treated eye vs control measurements of same eye
[6] = non-treated eye dilation compared to treated eye dilation
[7] = right eye pre-treated 3 times a day for 4 days, then phenylephrine 10% both eyes
[8] = right eye pre-treated 3 times a day for 4 days, then phenylephrine 10% both eyes, left eye not pre-treated
[9] = phenylephrine hydrochloride 10% both eyes, no pre-treatment (FIG. 5B)

Nc1cc(Cl)c(N=C2NCCN2)c(Cl)c1 [Apraclonidine, apraclonidine]
effect of pre-treatment on dilation ([1]; after dilation with phenylephrine hydrochloride 10%): hindered dilation | CH LStim Ave [1, 3]: 62% | CH RPupil Ave [1, 3]: 61% | CH RStim Ave [1, 3]: 62% | CH Right [1, 3]: 61% | CLAT LStim Ave [1, 3]: 0.21 s | CLAT RPupil Ave [1, 3]: 0.21 s | CLAT RStim Ave [1, 3]: 0.21 s | CLAT Right [1, 3]: 0.21 s | DELTA LStim Ave [1, 3]: 4.25 mm | DELTA RPupil Ave [1, 3]: 4.20 mm | DELTA RStim Ave [1, 3]: 4.25 mm | DV LStim Ave [1, 3]: 1.08 mm/s | DV RPupil Ave [1, 3]: 1.19 mm/s | DV RStim Ave [1, 3]: 1.08 mm/s | DV Right [1, 3]: 1.19 mm/s | MCV LStim Ave [1, 3]: 5.93 mm/s | MCV RPupil Ave [1, 3]: 6.01 mm/s | MCV RStim Ave [1, 3]: 5.93 mm/s | Max LStim Ave [1, 3]: 6.87 mm | Max RStim Ave [1, 3]: 6.87 mm | Max Right [1, 3]: 6.91 mm | Min LStim Ave [1, 3]: 2.62 mm | Min RPupil Ave [1, 3]: 2.71 mm | Min RStim Ave [1, 3]: 2.62 mm | Min Right [1, 3]: 2.71 mm | CH LPupil Ave [1, 4]: 63% | CH Left [1, 4]: 63% | CLAT LPupil Ave [1, 4]: 0.21 s | CLAT Left [1, 4]: 0.21 s | DELTA Left [1, 4]: 4.28 mm | DV Left [1, 4]: 0.97 mm/s | MCV Left [1, 4]: 5.85 mm/s | Max Left [1, 4]: 6.82 mm | Min Left [1, 4]: 2.54 mm | Pupil size change (%) [1, 5]: −17.83% | Surgical work area change (%) [1, 5]: −32.48% | Pupil size change (%) [1, 6]: −40.4% | Surgical work area (%) [1, 6]: −64.48% | Pupil size, Treated eye [1]: 2.95 mm | Surgical Work area, Treated eye [1]: 6.831 mm^2 | Pupil size, Non-treated eye [1]: 4.95 mm | Surgical Work area, Non-treated eye [1]: 19.23 mm^2 | CH LStim Ave [1, 7]: 54% | CH RPupil Ave [1, 7]: 62% | CH RStim Ave [1, 7]: 54% | CH Right [1, 7]: 62% | CLAT LStim Ave [1, 7]: 0.22 s | CLAT RPupil Ave [1, 7]: 0.21 s | CLAT RStim Ave [1, 7]: 0.22 s | CLAT Right [1, 7]: 0.21 s | DELTA LStim Ave [1, 7]: 4.59 mm | DELTA RPupil Ave [1, 7]: 4.88 mm | DELTA RStim Ave [1, 7]: 4.59 mm | DV LStim Ave [1, 7]: 1.21 mm/s | DV RPupil Ave [1, 7]: 1.18 mm/s | DV RStim Ave [1, 7]: 1.21 mm/s | DV Right [1, 7]: 1.18 mm/s | MCV LStim Ave [1, 7]: 3.80 mm/s | MCV RPupil Ave [1, 7]: 5.03 mm/s | MCV RStim Ave [1, 7]: 3.80 mm/s | Max LStim Ave [1, 7]: 8.54 mm | Max RStim Ave [1, 7]: 8.54 mm | Max Right [1, 7]: 7.83 mm | Min LStim Ave [1, 7]: 3.95 mm | Min RPupil Ave [1, 7]: 2.95 mm | Min RStim Ave [1, 7]: 3.95 mm | Min Right [1, 7]: 2.95 mm | CH LPupil Ave [1, 8]: 46% | CH Left [1, 8]: 46% | CLAT LPupil Ave [1, 8]: 0.23 s | CLAT Left [1, 8]: 0.23 s | DELTA Left [1, 8]: 4.30 mm | DV Left [1, 8]: 1.24 mm/s | MCV Left [1, 8]: 2.58 mm/s | Max Left [1, 8]: 9.25 mm | Min Left [1, 8]: 4.95 mm | α2:α1 affinity [2]: 150

CNC[C@H](O)c1cccc(O)c1 [Phenylephrine hydrochloride 10%, phenylephrine]
CH LPupil Ave [1, 9]: 58% | CH LStim Ave [1, 9]: 57% | CH Left [1, 9]: 58% | CH RPupil Ave [1, 9]: 56% | CH RStim Ave [1, 9]: 57% | CH Right [1, 9]: 56% | CLAT LPupil Ave [1, 9]: 0.24 s | CLAT LStim Ave [1, 9]: 0.22 s | CLAT Left [1, 9]: 0.24 s | CLAT RPupil Ave [1, 9]: 0.20 s | CLAT RStim Ave [1, 9]: 0.22 s | CLAT Right [1, 9]: 0.20 s | DELTA LStim Ave [1, 9]: 4.63 mm | DELTA Left [1, 9]: 4.65 mm | DELTA RPupil Ave [1, 9]: 4.62 mm | DELTA RStim Ave [1, 9]: 4.63 mm | DV LStim Ave [1, 9]: 1.43 mm/s | DV Left [1, 9]: 1.40 mm/s | DV RPupil Ave [1, 9]: 1.45 mm/s | DV RStim Ave [1, 9]: 1.43 mm/s | DV Right [1, 9]: 1.45 mm/s | MCV LStim Ave [1, 9]: 4.62 mm/s | MCV Left [1, 9]: 4.78 mm/s | MCV RPupil Ave [1, 9]: 4.46 mm/s | MCV RStim Ave [1, 9]: 4.62 mm/s | Max LStim Ave [1, 9]: 8.11 mm | Max Left [1, 9]: 8.01 mm | Max RStim Ave [1, 9]: 8.11 mm | Max Right [1, 9]: 8.21 mm | Min LStim Ave [1, 9]: 3.48 mm | Min Left [1, 9]: 3.36 mm | Min RPupil Ave [1, 9]: 3.59 mm | Min RStim Ave [1, 9]: 3.48 mm | Min Right [1, 9]: 3.59 mm | Pupil size, Treated eye [1]: 3.59 mm | Surgical Work area, Treated eye [1]: 10.12 mm^2 | Pupil size, Non-treated eye [1]: 3.36 mm | Surgical Work area, Non-treated eye [1]: 8.862 mm^2
